Test results from patent publication US20240252494A1, “Mechanotransduction Disruption Mediation in Skin Grafting Methods and Compositions for Use in Practicing the Same” (The Board of Trustees of the Leland Stanford Junior …, priority 2021, published 2024).

Tests used:
[1] = system: full-thickness excisional wounds with STSG; assay: Scar contracture analysis in porcine STSG model; assay type: in vivo, red Duroc pigs
Source text: (§1) STSG were not disturbed during the first 3 days.
(§2) After three weeks, dressings (and hydrogels) were changed twice per week until month 3. STSG were no longer bolster dressed and instead a conventional dressing was used (Telfa+Tegaderm). Each STSG within the animal was biopsied for histological and molecular evaluation at the end of the study.
STSG were monitored photographically at each dressing change. Each image was taken with a ruler or standard measurement device to standardize measurements. Scar areas were traced over time in ImageJ. Contracture was measured as change in scar area, normalized to the area of the STSG during the first dressing change. Two independent evaluators measured scar area, and the resultant scar area was the average of the two measurements.

tumor growth = details: in vivo; cited from earlier work
[2] = system: full-thickness excisional wounds with STSG; assay: Cutometer viscoelastic analysis of STSG biomechanical properties; assay type: in vivo, red Duroc pigs; details: vs untreated STSG; P<0.05
Source text: as §1, §2
A cutometer (Dual MPA 580, Courage+Khazaka Electronic) was used to evaluate the firmness and elasticity of the healing tissue and unwounded skin. Cutometer assessment is one of the most common instruments to measure viscoelasticity in human patients (111, 112), measuring the vertical deformation of the skin surface by applying negative pressure (suction) through a small circular diameter (8 mm probe). Deformation (suction) for two seconds followed by two seconds of relaxation (no suction) was applied three times and averaged. The firmness 0 was measured as the amplitude at the end of the suction phase (RO metric) and normalized against the values of STSG treated with blank hydrogels (111). Increased deformation to a consistent negative pressure corresponds to less firm tissue, more similar to unwounded skin.

porcine fibroblasts = assay: 3D organotypic scar culture system (strained collagen scaffolds), scRNA-seq; assay type: cell-based; details: 10% strain, 10 µM FAKI
Source text: (§3) To determine whether the increased mechanical strain experienced by cells within the healing STSG would trigger the same fibroblast transcriptional states observed in vivo, we used our previously published three-dimensional (3D) organotypic scar culture system that permits the precise manipulation of strain (and therefore stress) without any other potential confounding factors (27, 98). Fibroblasts were first isolated from human skin and seeded within 3D collagen scaffolds (FIG. 8A). These scaffolds were then subjected to either 10% strain (Strain, S), 10% strain with FAK inhibition (Strain+FAKI, S+FAKI), or 0% strain (No Strain, NS) as a control (FIG. 8, A to C). Because it seemed likely that healing tissue would not be subjected to maximal strains (due to pain), we used a strain profile of 10% to represent the average wound strain environment.
We isolated and cultured dermal fibroblasts from both healthy human and porcine skin samples. Fibroblasts were isolated by mechanical and enzymatic digestion and cultured under standard conditions until passage 3. […]
We used a suture to paint nine Titanium(IV) oxide dots (Sigma-Aldrich 248576) on the surface of the central region of the gel to track and quantify the imposed strains. […]

human fibroblasts = assay: 3D organotypic scar culture system (strained collagen scaffolds), immunofluorescent staining; assay type: cell-based; details: 10% strain, 48 hours, 10 µM FAKI, vs strained fibroblasts
Source text: as §3
We isolated and cultured dermal fibroblasts from both healthy human and porcine skin samples. Fibroblasts were isolated by mechanical and enzymatic digestion and cultured under standard conditions until passage 3. Following our previously published protocols (98), we used the primary fibroblasts to create fibroblast-populated collagen hydrogels with a concentration of 200 k cells/mL and 2 mg/mL collagen (PureCol, Advanced Biomatrix 5005). In brief, collagen scaffolds were formulated in a cruciform shape with sponges in the arms and cultured in petri dishes on top of a layer (˜0.5 cm) of cured polydimethylsiloxane (PDMS; Sylgard 184 Silicone Elastomer Kit; Dow Corning). Pins were pushed through the sponges in the hydrogel cruciform arms to constrain the scaffolds during an initial pre-culture period (24h). Then, we subjected the scaffolds to either 0% strain (no strain) or 10% equibiaxial strain (either with or without FAKI) for an additional 48 hours. Strained but untreated cells were given 10 μL DMSO in 20 mL culture media, while strained and treated cells were administered 10 μL of 20 mM FAKI in DMSO in 20 mL culture media to achieve a final concentration of 10 µM FAKI.
We used a suture to paint nine Titanium(IV) oxide dots (Sigma-Aldrich 248576) on the surface of the central region of the gel to track and quantify the imposed strains. We used a digital camera to image the markers before and after strain. Strain was imposed by removing the pins, manually extending the hydrogel cruciform arms, and pushing the pins back through the arms to hold the scaffold in a new, extended position. Photographs of the marker positions were used to compute a single homogenous deformation gradient tensor F that provided the least-squares best fit mapping of the 9 marker positions from the undeformed to deformed positions by solving the overdetermined matrix equation: […]

porcine STSG cells = assay: scRNA-seq of porcine STSG tissue; assay type: in vivo, red Duroc pigs; details: for number of DEGs between untreated STSG and STSG treated with FAKI: POD7
Experimental: We obtained a 1 cm^2 tissue from the center of our STSG groups or unwounded skin. The tissue was thoroughly cut into small 1 mm^2 pieces using a scalpel before then being carefully minced with fine scissors. To maximize cell capture for scRNA-seq, diligent care was made to cut the tissue into a fine tissue paste consistency. An increased enzyme concentration and volume of 30 ml of 1 mg/mL Liberase (Sigma-Aldrich 5401127001) in PBS were used to fully break down the dense, fibrotic porcine extracellular matrix. The cell-digest suspensions were constantly agitated (rotated) for a total of 2 hours at 37° C. Tissue solution was subjected to maximum speed vortex mixer (VWR) for 30 seconds before being placed in the oven, after 1 hour, and again after total of 2 hours to physically disrupt any tissue that had clumped together and maximize the tissue surface area exposed to enzymatic digestion at all times.
The tissue solution was filtered through a 100 μm Nylon cell filter (Fisher-Scientific 08-771-19) into a new conical tube, and 20 mL of 10% FBS DMEM was added through the filter to quench the enzymatic reaction and release any cells trapped within the filter, maximizing downstream cell yield. Solutions were spun at 350×g for 5 min at 4° C. in a centrifuge, supernatant was aspirated, and cells were then resuspended in 20 mL 10% FBS DMEM and passed through a 70 μm Nylon cell filter. A 20 mL solution of 10% FBS in PBS (FACS Buffer) was added through the filter to wash the remaining cells.
This cellular suspension was then resuspended in a concentrated solution and submitted for droplet-based microfluidic single cell RNA sequencing (scRNA-seq) at the Stanford Functional Genomics Facility (SFGF) using the 10× Chromium Single Cell platform (Single Cell 3′ v3, 10× Genomics, USA). The cell suspension, reverse transcription master mix, and partitioning oil was loaded onto a single cell chip, processed on the Chromium Controller, and reverse transcription was performed at 53° C. for 45 min. cDNA was amplified for 12 cycles total (BioRad C1000 Touch thermocycler) with cDNA size selected using SpriSelect beads (Beckman Coulter, USA) and a 3:5 ratio of SpriSelect reagent volume to sample volume. cDNA was analyzed on an Agilent Bioanalyzer High Sensitivity DNA chip for qualitative control, fragmented for 5 min at 32° C., followed by end repair and A-tailing at 65° C. for 30 min, and then double-sided size selected with SpriSelect. Sequencing adaptors were ligated to the cDNA at 20° C. for 15 min. cDNA was amplified using a sample-specific index oligo as primer, followed by another round of double-sided size selection. Final libraries were analyzed on an Agilent Bioanalyzer High Sensitivity DNA chip for qualitative control purposes. cDNA libraries were sequenced on a HiSeq 4000 Illumina platform aiming for 50,000 reads per cell.
Base calls were converted to reads using the Cell Ranger (10× Genomics; version 3.1) implementation of mkfastq and then aligned against our custom pig transcriptome using Cell Ranger's count function with SC3Pv3 chemistry and 5,000 expected cells per sample (51). Cell barcodes were filtered for high quality based on an optimized threshold of having at least 200 unique transcripts profiled, less than 10,000 total transcripts, and less than 10% of their transcriptome of mitochondrial origin (114).
Unique molecular identifiers (UMIs) from each cell barcode were retained for all downstream analysis. Raw UMI counts were normalized with a scale factor of 10,000 UMIs per cell and subsequently natural log transformed with a pseudocount of 1 using the R package Seurat (version 3.1.1) (52). Highly variable genes were identified, and cells were scaled by regression to the fraction of mitochondrial transcripts. Aggregated data was then evaluated using uniform manifold approximation and projection (UMAP) analysis over the first 15 principal components (115). […]

[3] = system: full-thickness excisional wounds with STSG; assay: Histological analysis of collagen architecture of porcine STSG; assay type: in vivo, red Duroc pigs
Experimental: as §1
No patient identifying information was retained with the samples.
Masson's Trichrome staining and Picrosirius Red staining were performed, and images were captured with a Leica DM5000 B upright microscope. For Picrosirius Red, polarized light microscopy was used to obtain 40× magnification images and analysis of fiber alignment was performed using CurveAlign (109) and MatFiber (98, 110). The strength of alignment ranges from a value of 0 (completely random fiber alignment) to 1 (completely aligned fibers). Quantification of individual collagen fiber parameters (fiber length, width) was performed using CT-FIRE (http://loci.wisc.edu/software/ctfire) (109, 113).

[4] = POD90, regenerative lineages 1 and 2

For CN(c1ncccc1CNc1nc(Nc2ccc3c(c2)CC(=O)N3)ncc1C(F)(F)F)S(C)(=O)=O [FAKI], which “scar contracture at early time points” value ([1]; POD7, P=0.09, POD21, P<0.05) is on record?
Its value is “blocked scar contracture”.

And the scar contracture ([1]; POD28, change in scar area normalized to STSG area at first dressing change, untreated and blank hydrogel-treated STSGs over 70%)?
Its scar contracture is 30%.

And the tumor growth (tumor growth)?
The tumor growth was “blocks tumor growth”.

What about the “secretion of IP-10 (CXCL10)” value (porcine STSG tissue; POD 7, P<0.05) of the same molecule?
The value was “upregulated”.

And the “number of infiltrating inflammatory cells (F4/80-positive macrophages)” value (porcine STSG tissue; early (POD 7, P<0.001) and late (POD 90, P<0.05) time points)?
Its value is “significantly decreased”.

What about the “STSG firmness and stiffness (cutometer deformation)” value [2] of the same molecule?
The value was “less firm and less stiff”.

What about the “APOE, EGR1 and PRDX1 expression” value (porcine fibroblasts) of the same molecule?
Its value is “upregulation”.

And the “pro-fibrotic responses (CXCL14, THBS2, COL1A1 expression)” value (porcine fibroblasts)?
The value was “abrogated”.

What about the CD34 expression (human fibroblasts; P<0.0001) of the same molecule?
Its CD34 expression is “significantly increasing”.

And the APOE expression (human fibroblasts; P<0.01)?
Its APOE expression is “significantly increasing”.

And the aSMA expression (human fibroblasts; P<0.01)?
The aSMA expression was “significantly decreased”.

What about the CXCL14 expression (human fibroblasts; P<0.05) of the same molecule?
Its CXCL14 expression is “significantly decreased”.

And the THBS4 expression (human fibroblasts; P<0.05)?
Its THBS4 expression is “significantly decreased”.

What about the “number of DEGs between untreated STSG and STSG treated with FAKI” value (shortened to “number … with FAKI”) (porcine STSG cells; all other cell types) of the same molecule?
The value was under 75.

What about the “number … with FAKI” value (porcine STSG cells; fibroblasts) of the same molecule?
Its value is “about 50”.

And the “number … with FAKI” value (porcine STSG cells; monocyte-lineage cells (macrophages, monocytes, dendritic cells))?
The value was over 170.

What about the “number … with FAKI” value (porcine STSG cells; neutrophils and lymphoid cells, each) of the same molecule?
The value was “around 100”.

And the “adipogenic gene sets and stem cell markers (CD34 and NT5E) in fibroblasts” value (porcine STSG cells; POD90, lineages 1 and 2)?
The value was “promoted”.

And the “fibroblast transcriptional state (CellRank lineages)” value (porcine STSG cells; POD90, primarily lineages 1 and 2)?
The value was “transcriptional similarity to those from unwounded skin”.

What about the “APOE, CLEC3B, CD34, and PPARG unspliced pre-mRNA in fibroblasts” value (porcine STSG cells; [4]) of the same molecule?
The value was “upregulation”.

What about the “pro-fibrotic genes in fibroblasts” value (porcine STSG cells; [4]) of the same molecule?
Its value is “abrogation”.

What about the “collagen fiber length and alignment” value ([3]; deep dermis, POD90, P<0.05) of the same molecule?
Its value is “shorter and more randomly aligned”.

And the overall collagen deposition ([3]; superficial and deep dermis, by decreasing fiber widths and architectural complexity)?
Its overall collagen deposition is “decreased”.
